# Results from PubChem BioAssay (NCI).
#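 How tested: cells in 96-well plates exposed to compound for 48 hours at five concentrations. GI50 marks 50% less growth. TGI denotes the concentration required for complete inhibition of growth.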
# How the values were obtained:
# Assay in all cases: inhibition of tumour cell growth, NCI panel, 48 h
# U251 CNS = tested on: U251 CNS
# SNB-19 CNS = tested on: SNB-19 CNS
# HCT-15 colon = tested on: HCT-15 colon
# SK-MEL-5 melanoma = tested on: SK-MEL-5 melanoma
# TK-10 renal = tested on: TK-10 renal
# MCF7 breast = tested on: MCF7 breast
# NCI-H23 lung = tested on: NCI-H23 lung
# DU-145 prostate = tested on: DU-145 prostate
# NCI-H460 lung = tested on: NCI-H460 lung
# 786-0 renal = tested on: 786-0 renal
# SNB-75 CNS = tested on: SNB-75 CNS
# NCI-H522 lung = tested on: NCI-H522 lung
# OVCAR-4 ovarian = tested on: OVCAR-4 ovarian
# LOX IMVI melanoma = tested on: LOX IMVI melanoma
# A549 NSCLC = tested on: A549 NSCLC
# NCI-H226 lung = tested on: NCI-H226 lung
# SF-295 CNS = tested on: SF-295 CNS
# UO-31 renal = tested on: UO-31 renal
# OVCAR-8 ovarian = tested on: OVCAR-8 ovarian
# SN12C renal = tested on: SN12C renal
# RXF 393 renal = tested on: RXF 393 renal
# OVCAR-3 ovarian = tested on: OVCAR-3 ovarian
# CCRF-CEM leukemia = tested on: CCRF-CEM leukemia
# A498 renal = tested on: A498 renal
# KM12 colon = tested on: KM12 colon
# SK-MEL-2 melanoma = tested on: SK-MEL-2 melanoma
# EKVX NSCLC = tested on: EKVX NSCLC
# M14 melanoma = tested on: M14 melanoma
# RPMI-8226 leukemia = tested on: RPMI-8226 leukemia
# ACHN renal = tested on: ACHN renal
# NCI/ADR-RES ovarian = tested on: NCI/ADR-RES ovarian
# HCC-2998 colon = tested on: HCC-2998 colon
# PC-3 prostate = tested on: PC-3 prostate
# UACC-62 melanoma = tested on: UACC-62 melanoma
# SW-620 colon = tested on: SW-620 colon
# SF-268 CNS = tested on: SF-268 CNS
# UACC-257 melanoma = tested on: UACC-257 melanoma
# SF-539 CNS = tested on: SF-539 CNS
# T-47D breast = tested on: T-47D breast
# BT-549 breast = tested on: BT-549 breast
# IGROV1 ovarian = tested on: IGROV1 ovarian
# HOP-62 NSCLC = tested on: HOP-62 NSCLC
# K-562 leukemia = tested on: K-562 leukemia
# HT29 colon = tested on: HT29 colon
# OVCAR-5 ovarian = tested on: OVCAR-5 ovarian
# SK-OV-3 ovarian = tested on: SK-OV-3 ovarian
# COLO 205 colon = tested on: COLO 205 colon
# HS 578T breast = tested on: HS 578T breast
# MDA-MB-231 breast = tested on: MDA-MB-231 breast
# MALME-3M melanoma = tested on: MALME-3M melanoma
# HCT-116 colon = tested on: HCT-116 colon
# SR leukemia = tested on: SR leukemia
# SK-MEL-28 melanoma = tested on: SK-MEL-28 melanoma
# MDA-MB-435 = tested on: MDA-MB-435
smiles,measurement,setting,value
CCN(CC)CCCC(C)Nc1nc(C)cc(Nc2ccc3nc(C)cc(N)c3c2)n1 (stereo not drawn),GI50,U251 CNS,26.4 µM
same,TGI,U251 CNS,98.7 µM
same,GI50,SNB-19 CNS,24.7 µM
same,TGI,SNB-19 CNS,97 µM
same,GI50,HCT-15 colon,> 100 µM
same,TGI,HCT-15 colon,> 100 µM
same,GI50,SK-MEL-5 melanoma,> 100 µM
same,TGI,SK-MEL-5 melanoma,> 100 µM
same,GI50,TK-10 renal,> 100 µM
same,TGI,TK-10 renal,> 100 µM
same,GI50,MCF7 breast,31.2 µM
same,TGI,MCF7 breast,78.3 µM
same,GI50,NCI-H23 lung,32.1 µM
same,TGI,NCI-H23 lung,> 100 µM
same,GI50,DU-145 prostate,42.4 µM
same,TGI,DU-145 prostate,> 100 µM
same,GI50,NCI-H460 lung,24.3 µM
same,TGI,NCI-H460 lung,62.8 µM
same,GI50,786-0 renal,> 100 µM
same,TGI,786-0 renal,> 100 µM
same,GI50,SNB-75 CNS,19.8 µM
same,TGI,SNB-75 CNS,> 100 µM
same,GI50,NCI-H522 lung,23.9 µM
same,TGI,NCI-H522 lung,91.9 µM
same,GI50,OVCAR-4 ovarian,20.9 µM
same,TGI,OVCAR-4 ovarian,60.8 µM
same,GI50,LOX IMVI melanoma,18.4 µM
same,TGI,LOX IMVI melanoma,39.8 µM
same,GI50,A549 NSCLC,> 100 µM
same,TGI,A549 NSCLC,> 100 µM
same,GI50,NCI-H226 lung,> 100 µM
same,TGI,NCI-H226 lung,> 100 µM
same,GI50,SF-295 CNS,0.0287 µM
same,TGI,SF-295 CNS,28.7 µM
same,GI50,UO-31 renal,86.1 µM
same,TGI,UO-31 renal,> 100 µM
same,GI50,OVCAR-8 ovarian,84.5 µM
same,TGI,OVCAR-8 ovarian,> 100 µM
same,GI50,SN12C renal,37 µM
same,TGI,SN12C renal,> 100 µM
same,GI50,RXF 393 renal,55.1 µM
same,TGI,RXF 393 renal,> 100 µM
same,GI50,OVCAR-3 ovarian,32.1 µM
same,TGI,OVCAR-3 ovarian,96.9 µM
same,GI50,CCRF-CEM leukemia,15.3 µM
same,TGI,CCRF-CEM leukemia,41.6 µM
same,GI50,A498 renal,> 100 µM
same,TGI,A498 renal,> 100 µM
same,GI50,KM12 colon,19.3 µM
same,TGI,KM12 colon,40.1 µM
same,GI50,SK-MEL-2 melanoma,56.6 µM
same,TGI,SK-MEL-2 melanoma,> 100 µM
same,GI50,EKVX NSCLC,53.3 µM
same,TGI,EKVX NSCLC,> 100 µM
same,GI50,M14 melanoma,33.7 µM
same,TGI,M14 melanoma,> 100 µM
same,GI50,RPMI-8226 leukemia,4.52 µM
same,TGI,RPMI-8226 leukemia,23 µM
same,GI50,ACHN renal,> 100 µM
same,TGI,ACHN renal,> 100 µM
same,GI50,NCI/ADR-RES ovarian,> 100 µM
same,TGI,NCI/ADR-RES ovarian,> 100 µM
same,GI50,HCC-2998 colon,26.9 µM
same,TGI,HCC-2998 colon,82.9 µM
same,GI50,PC-3 prostate,12.4 µM
same,TGI,PC-3 prostate,37.8 µM
same,GI50,UACC-62 melanoma,39.2 µM
same,TGI,UACC-62 melanoma,> 100 µM
same,GI50,SW-620 colon,35.8 µM
same,TGI,SW-620 colon,> 100 µM
same,GI50,SF-268 CNS,22.1 µM
same,TGI,SF-268 CNS,50.9 µM
same,GI50,UACC-257 melanoma,36.4 µM
same,TGI,UACC-257 melanoma,> 100 µM
same,GI50,SF-539 CNS,20.8 µM
same,TGI,SF-539 CNS,43.6 µM
same,GI50,T-47D breast,28.6 µM
same,TGI,T-47D breast,99.4 µM
same,GI50,BT-549 breast,19.2 µM
same,TGI,BT-549 breast,56.7 µM
same,GI50,IGROV1 ovarian,28 µM
same,TGI,IGROV1 ovarian,> 100 µM
same,GI50,HOP-62 NSCLC,38.9 µM
same,TGI,HOP-62 NSCLC,> 100 µM
same,GI50,K-562 leukemia,27.1 µM
same,TGI,K-562 leukemia,51.5 µM
same,GI50,HT29 colon,24.4 µM
same,TGI,HT29 colon,75.2 µM
same,GI50,OVCAR-5 ovarian,45.8 µM
same,TGI,OVCAR-5 ovarian,> 100 µM
same,GI50,SK-OV-3 ovarian,> 100 µM
same,TGI,SK-OV-3 ovarian,> 100 µM
same,GI50,COLO 205 colon,39.5 µM
same,TGI,COLO 205 colon,> 100 µM
same,GI50,HS 578T breast,24.6 µM
same,TGI,HS 578T breast,65.1 µM
same,GI50,MDA-MB-231 breast,29 µM
same,TGI,MDA-MB-231 breast,85.8 µM
same,GI50,MALME-3M melanoma,24.7 µM
same,TGI,MALME-3M melanoma,70.2 µM
same,GI50,HCT-116 colon,32.4 µM
same,TGI,HCT-116 colon,> 100 µM
same,GI50,SR leukemia,0.024 µM
same,TGI,SR leukemia,22.8 µM
same,GI50,SK-MEL-28 melanoma,24.3 µM
same,TGI,SK-MEL-28 melanoma,50.1 µM
same,GI50,MDA-MB-435,14.5 µM
same,TGI,MDA-MB-435,29.5 µM
